Laboratory results published in patent US20140378541A1, “Synthetic Epigallocatechin Gallate (EGCG) Analogs” (WAYNE STATE UNIVERSITY, priority 2011, published 2014).

Tests used:
AMPK signaling = assay: AMPK activation, Western blot, MDA-MB-231 cells; format: cell-based, human; settings: 3 h; for AMPK activation (p-AMPK): 20 μM, metformin 10 mM as comparison; for AMPK activation (phosphor-AMPKα, phosphor-Raptor), dose dependence: indicated concentrations
Method: In FIG. 9A, human breast cancer MDA-MB-231 cells were treated with 20 μM of EGCG, Pro-EGCG and EGCG analogs (compounds 5, 7, 23, 30 and 31), or 10 mM of metformin for 3 hrs. Cell lysates were analyzed by Western blot using antibodies of anti-AMPK, p-AMPK, PARP, p-EGFR, EGFR or β-actin. In FIG. 9B, human breast cancer MDA-MB-231 cells were treated with 20 μM of EGCG analogs 23 and 30, 10 nM of docetaxel alone, or combined treatment with compounds 23 and 30 plus docetaxel for 24 hrs. Cell lysates were analyzed by Western blot using antibodies of anti-AMPK, p-AMPK, PARP, p-EGFR, EGFR or β-actin. In FIG. 9C, cells were incubated in medium (0.1% BSA without FBS) containing 20 μM of 23, 30, 2.5 μM of Erlotinib (Eb) alone or the combinations as indicated for 24 hrs. Cell lyses were analyzed by Western blot using antibodies of anti-AMPK, p-AMPK, PARP, p-EGFR, EGFR or β-actin.
(A) EGCG analogs 23 and 30 inhibited breast cancer cell proliferation. MDA-MB-231 cells were treated with indicated concentrations of 23, 30 or metformin for 24 h, followed by a MTT assay. *, P<0.1; **, P<0.01. Columns, mean of three experiments; bars, SD. (B) EGCG analogs 23 and 30 activated AMPK at a dose-dependent manner, measured by elevated level of phosphor-AMPKα and its downstream proteins of phosphor-Raptor. […] MDA-MB-231 cells were treated with indicated concentrations of 23 or 30 for 3 h, followed by Western blot analysis with the indicated antibodies. The numbers underneath the Western results of p-AMPKα indicated normalized phosphor-AMPKα/β-actin ratios. […]
A whole cell extract was prepared from the treated cells as described by Landis-Piwowar et al. Cancer Res. (2007) 67, 4303, Chen et al. Cancer Res. (2007) 67, 1636, and Chen et al. Biochem. Pharm. (2005) 69, 1421. Cell extracts (30 μg) were separated by an SDS-PAGE gel and transferred to nitrocellulose membranes. The membrances were blotted by specific antibodies including anti-AMPK, p-AMPK, EGFR, p-EGFR (Cell Signaling Tech., Danvers, Mass.), PARP (Enzo Life Sciences, Plymouth Meeting, Pa.), actin (Santa Cruz Biotechnology, Santa Cruz, Calif.). The membranes were visualized by enhanced chemiluminescence, as described previously by Landis-Piwowar et al. Cancer Res. (2007) 67, 4303, Chen et al. Cancer Res. (2007) 67, 1636, and Chen et al. Biochem. Pharm. (2005) 69, 1421.
The Western blot analysis was performed as follows: A whole cell extract was prepared from the treated cells as described previously (Landis-Piwowar et al., Cancer research, 2007, 67: 4303-4310; Chen et al., Cancer research, 2007, 67: 1636-1644; Chen et al., Biochemical pharmacology, 2005, 69: 1421-1432). The cell extracts (30 μg) were then separated by an SDS-PAGE gel and transferred to nitrocellulose membranes. The membrances were blotted by specific antibodies including anti-AMPK, p-AMPK, EGFR, p-EGFR (Cell Signaling Tech. Danvers, Mass.), PARP (Enzo Life Sciences, Plymouth Meeting, Pa.), actin (Santa Cruz Biotechnology, Santa Cruz, Calif.). The membranes were visualized by enhanced chemiluminescence, as described previously (Landis-Piwowar et al., Cancer research, 2007, 67: 4303-4310; Chen et al., Cancer research, 2007, 67: 1636-1644; Chen et al., Biochemical pharmacology, 2005, 69: 1421-1432).
In FIG. 9A, human breast cancer MDA-MB-231 cells were treated with 20 μM of EGCG, Pro-EGCG and other EGCG analogs (compounds 5, 7, 23, 30 and 31), or 10 mM of metformin for 3 hrs. Cell lysates were analyzed by Western blot using antibodies of anti-AMPK, p-AMPK, PARP, p-EGFR, EGFR or β-actin. In FIG. 9B, human breast cancer MDA-MB-231 cells were treated with 20 μM of EGCG analogs 23 and 30, 10 nM of docetaxel alone, or combined treatment with compounds 23 and 30 plus docetaxel for 24 hrs.

MDA-MB-231 cells = assay: Mammosphere formation assay; format: cell-based; settings: Homo sapiens, MDA-MB-231, 168 h, 7 days
Method: MDA-MB-231 cells were seeded in low attached 6-well plates (1000 cells/well) and treated with indicated concentrations of 23 and 30 for 7 days, followed by calculating numbers of mammosphere (A) and taking photos of mammosphere morphology (B). Metformin and EGCG were served as control. *, P<0.1; **, P<0.01. Columns, mean of three experiments; bars, SD.
Mammosphere formation assay was performed to assess the capacity of cancer stem cell self-renewal. Single cell suspensions of MDA-MB-231 cells were thoroughly suspended and plated on ultra low adherent wells of 6-well plates (Corning, Lowell, Mass.) at 1000 cells/well in 1.5 ml of sphere formation medium (1:1 DMEM/F12 medium supplemented with 50 units/ml penicillin, […] streptomycin, B-27 and N-2). One milliliter of sphere formation medium was added every 3-4 days. After 7 days of incubation with different concentrations of EGCG analogs 23, 30 or metformin, the formed spheres were collected by centrifugation at 300 g for 5 min and counted with an inverted phase-contrast Zeiss Axiovert 25 microscope.

SMILES	AMPK activation (p-AMPK) (AMPK signaling)	AMPK activation (phosphor-AMPKα, phosphor-Raptor), dose dependence (AMPK signaling)	inhibition at 10 µM (MDA-MB-231 cells)	inhibition at 20 µM (MDA-MB-231 cells)
Nc1ccc(C(=O)O[C@H]2Cc3ccccc3C[C@H]2OC(=O)c2ccc(N)cc2)cc1 [Compound 30]	more potent AMPK activators even at lower concentration than metformin	activated AMPK in a dose-dependent manner	52.2%	73.3%
O=C(O[C@H]1Cc2ccccc2C[C@H]1OC(=O)c1cc(O)c(Br)c(O)c1)c1cc(O)c(Br)c(O)c1 [Compound 23]	more potent AMPK activators even at lower concentration than metformin	activated AMPK in a dose-dependent manner	45.1%	66.7%
O=C(O[C@@H]1Cc2c(O)cc(O)cc2O[C@@H]1c1cc(O)c(O)c(O)c1)c1cc(O)c(O)c(O)c1 [Compound 1, (−)-Epigallocatechin gallate, reference compound]	can activate AMPK signaling	–	20.1%	51.3%
